Results published in the NIST ThermoML archive (doi:10.1016/j.jct.2015.09.020).
± gives the expanded uncertainty stated by the source.

Test: mn = molality of the nth substance listed, in mol/kg
Conditions: 101.3 kPa, Liquid

NCCCC(=O)O [4-aminobutanoic acid] + O
Conditions | speed of sound [m/s]
278.15 K, Frequency=2 MHz, Linear variable-path acoustic interferometer, m1 = 0.0495 | 1431.4 ± 1.7
278.15 K, Frequency=2 MHz, Linear variable-path acoustic interferometer, m1 = 0.0732 | 1433.1 ± 1.7
278.15 K, Frequency=2 MHz, Linear variable-path acoustic interferometer, m1 = 0.0959 | 1435.4 ± 1.7
278.15 K, Frequency=2 MHz, Linear variable-path acoustic interferometer, m1 = 0.1193 | 1436.9 ± 1.7
278.15 K, Frequency=2 MHz, Linear variable-path acoustic interferometer, m1 = 0.1412 | 1439 ± 1.7
278.15 K, Frequency=2 MHz, Linear variable-path acoustic interferometer, m1 = 0.1828 | 1442.1 ± 1.7
278.15 K, Frequency=2 MHz, Linear variable-path acoustic interferometer, m1 = 0.2085 | 1444.1 ± 1.8
278.15 K, Frequency=2 MHz, Linear variable-path acoustic interferometer, m1 = 0.2388 | 1446.9 ± 1.8
278.15 K, Frequency=2 MHz, Linear variable-path acoustic interferometer, m1 = 0.2699 | 1449.7 ± 1.8
278.15 K, Frequency=2 MHz, Linear variable-path acoustic interferometer, m1 = 0.2922 | 1452.3 ± 1.8
278.15 K, Frequency=2 MHz, Linear variable-path acoustic interferometer, m1 = 0.3224 | 1455.4 ± 1.8
278.15 K, Frequency=2 MHz, Linear variable-path acoustic interferometer, m1 = 0.3534 | 1457.4 ± 1.8
288.15 K, Frequency=3 MHz, Sing-around technique in a fixed-path interferometer, m1 = 0.0554 | 1470.3 ± 1.2
288.15 K, Frequency=3 MHz, Sing-around technique in a fixed-path interferometer, m1 = 0.0877 | 1472.6 ± 1.2
288.15 K, Frequency=3 MHz, Sing-around technique in a fixed-path interferometer, m1 = 0.0989 | 1473.5 ± 1.2
288.15 K, Frequency=3 MHz, Sing-around technique in a fixed-path interferometer, m1 = 0.1173 | 1474.9 ± 1.2
288.15 K, Frequency=3 MHz, Sing-around technique in a fixed-path interferometer, m1 = 0.1538 | 1479 ± 1.3
288.15 K, Frequency=3 MHz, Sing-around technique in a fixed-path interferometer, m1 = 0.1809 | 1481.1 ± 1.2
288.15 K, Frequency=3 MHz, Sing-around technique in a fixed-path interferometer, m1 = 0.211 | 1483 ± 1.2
288.15 K, Frequency=3 MHz, Sing-around technique in a fixed-path interferometer, m1 = 0.2389 | 1484.6 ± 1.3
288.15 K, Frequency=3 MHz, Sing-around technique in a fixed-path interferometer, m1 = 0.2692 | 1486.5 ± 1.3
288.15 K, Frequency=3 MHz, Sing-around technique in a fixed-path interferometer, m1 = 0.2861 | 1489.5 ± 1.4
288.15 K, Frequency=3 MHz, Sing-around technique in a fixed-path interferometer, m1 = 0.3181 | 1492.3 ± 1.3
288.15 K, Frequency=3 MHz, Sing-around technique in a fixed-path interferometer, m1 = 0.3496 | 1494.9 ± 1.4
298.15 K, Frequency=3 MHz, Sing-around technique in a fixed-path interferometer, m1 = 0.0494 | 1501.1 ± 1.2
298.15 K, Frequency=3 MHz, Sing-around technique in a fixed-path interferometer, m1 = 0.0781 | 1503.4 ± 1.2
298.15 K, Frequency=3 MHz, Sing-around technique in a fixed-path interferometer, m1 = 0.1017 | 1505.1 ± 1.2
298.15 K, Frequency=3 MHz, Sing-around technique in a fixed-path interferometer, m1 = 0.1227 | 1506.8 ± 1.2
298.15 K, Frequency=3 MHz, Sing-around technique in a fixed-path interferometer, m1 = 0.1469 | 1508.9 ± 1.3
298.15 K, Frequency=3 MHz, Sing-around technique in a fixed-path interferometer, m1 = 0.1846 | 1511.8 ± 1.3
298.15 K, Frequency=3 MHz, Sing-around technique in a fixed-path interferometer, m1 = 0.1944 | 1512.8 ± 1.3
298.15 K, Frequency=3 MHz, Sing-around technique in a fixed-path interferometer, m1 = 0.245 | 1516.7 ± 1.3
298.15 K, Frequency=3 MHz, Sing-around technique in a fixed-path interferometer, m1 = 0.2746 | 1519.2 ± 1.3
298.15 K, Frequency=3 MHz, Sing-around technique in a fixed-path interferometer, m1 = 0.2975 | 1521.1 ± 1.3
298.15 K, Frequency=3 MHz, Sing-around technique in a fixed-path interferometer, m1 = 0.3196 | 1522.6 ± 1.3
298.15 K, Frequency=3 MHz, Sing-around technique in a fixed-path interferometer, m1 = 0.3477 | 1525 ± 1.4

Conditions | mass density [kg/m3]
278.15 K, Pycnometric method, m1 = 0.0495 | 1001.55 ± 0.28
278.15 K, Pycnometric method, m1 = 0.0732 | 1002.25 ± 0.28
278.15 K, Pycnometric method, m1 = 0.0959 | 1002.93 ± 0.28
278.15 K, Pycnometric method, m1 = 0.1193 | 1003.65 ± 0.29
278.15 K, Pycnometric method, m1 = 0.1412 | 1004.35 ± 0.29
278.15 K, Pycnometric method, m1 = 0.1828 | 1005.72 ± 0.3
278.15 K, Pycnometric method, m1 = 0.2085 | 1006.55 ± 0.31
278.15 K, Pycnometric method, m1 = 0.2388 | 1007.5 ± 0.32
278.15 K, Pycnometric method, m1 = 0.2699 | 1008.41 ± 0.32
278.15 K, Pycnometric method, m1 = 0.2922 | 1009.03 ± 0.33
278.15 K, Pycnometric method, m1 = 0.3224 | 1009.87 ± 0.34
278.15 K, Pycnometric method, m1 = 0.3534 | 1010.83 ± 0.36
288.15 K, Vibrating tube method, m1 = 0.0554 | 1000.83 ± 0.11
288.15 K, Vibrating tube method, m1 = 0.0877 | 1001.66 ± 0.12
288.15 K, Vibrating tube method, m1 = 0.0989 | 1002.15 ± 0.13
288.15 K, Vibrating tube method, m1 = 0.1173 | 1002.71 ± 0.12
288.15 K, Vibrating tube method, m1 = 0.1538 | 1003.54 ± 0.13
288.15 K, Vibrating tube method, m1 = 0.1809 | 1004.28 ± 0.15
288.15 K, Vibrating tube method, m1 = 0.211 | 1005.14 ± 0.17
288.15 K, Vibrating tube method, m1 = 0.2389 | 1006.01 ± 0.18
288.15 K, Vibrating tube method, m1 = 0.2692 | 1006.87 ± 0.19
288.15 K, Vibrating tube method, m1 = 0.2861 | 1007.43 ± 0.2
288.15 K, Vibrating tube method, m1 = 0.3181 | 1008.36 ± 0.23
288.15 K, Vibrating tube method, m1 = 0.3496 | 1009.41 ± 0.26
298.15 K, Vibrating tube method, m1 = 0.0494 | 998.48 ± 0.11
298.15 K, Vibrating tube method, m1 = 0.0781 | 999.35 ± 0.12
298.15 K, Vibrating tube method, m1 = 0.1017 | 1000.09 ± 0.12
298.15 K, Vibrating tube method, m1 = 0.1227 | 1000.7 ± 0.13
298.15 K, Vibrating tube method, m1 = 0.1469 | 1001.41 ± 0.14
298.15 K, Vibrating tube method, m1 = 0.1846 | 1002.51 ± 0.15
298.15 K, Vibrating tube method, m1 = 0.1944 | 1002.74 ± 0.14
298.15 K, Vibrating tube method, m1 = 0.245 | 1004.3 ± 0.18
298.15 K, Vibrating tube method, m1 = 0.2746 | 1004.99 ± 0.17
298.15 K, Vibrating tube method, m1 = 0.2975 | 1005.61 ± 0.21
298.15 K, Vibrating tube method, m1 = 0.3196 | 1006.38 ± 0.22
298.15 K, Vibrating tube method, m1 = 0.3477 | 1007.09 ± 0.21
